Reference: ChEMBL document CHEMBL4138296, “Nonacidic Chemotype Possessing N-Acylated Piperidine Moiety as Potent Farnesoid X Receptor (FXR) Antagonists” (ACS Med Chem Lett, 2018)
pIC50: −log10 of the molar value. Activity calls are given as the source filed them. The calls are words filed in the database; no cut-off is given here.

What was measured:
Bile acid receptor [1] = molecular target: T1, Bile acid receptor (Homo sapiens, UniProt Q96RI1); test: Antagonist activity at human FXR expressed in Hep3B cells assessed as inhibition of CDCA-induced FXR response element driven luciferase activity after 24 hrs; format: cell-based
T1 sequence (Q96RI1 whole entry): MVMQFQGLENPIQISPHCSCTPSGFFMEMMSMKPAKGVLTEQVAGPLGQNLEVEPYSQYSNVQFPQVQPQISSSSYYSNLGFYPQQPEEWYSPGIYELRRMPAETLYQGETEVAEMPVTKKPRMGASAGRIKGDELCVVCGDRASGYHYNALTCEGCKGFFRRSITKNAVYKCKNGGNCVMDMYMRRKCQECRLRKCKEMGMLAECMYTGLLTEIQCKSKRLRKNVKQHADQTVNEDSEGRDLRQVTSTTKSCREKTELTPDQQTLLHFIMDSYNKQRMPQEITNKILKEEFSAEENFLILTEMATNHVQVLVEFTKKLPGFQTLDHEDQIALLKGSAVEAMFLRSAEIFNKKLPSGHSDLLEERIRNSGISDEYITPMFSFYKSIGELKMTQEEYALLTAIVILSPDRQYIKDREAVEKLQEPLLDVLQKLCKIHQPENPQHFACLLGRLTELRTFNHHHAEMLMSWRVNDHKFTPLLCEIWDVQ

[2] = molecular target: T2, Retinoic acid receptor RXR-alpha (Homo sapiens) (UniProt P19793); test: Antagonist activity at human RXRalpha expressed in HEK293T cells assessed as inhibition of 9-cis-retinoic acid-induced response at 1 uM after 24 hrs by luciferase reporter gene assay; format: cell-based
T2 sequence (whole entry): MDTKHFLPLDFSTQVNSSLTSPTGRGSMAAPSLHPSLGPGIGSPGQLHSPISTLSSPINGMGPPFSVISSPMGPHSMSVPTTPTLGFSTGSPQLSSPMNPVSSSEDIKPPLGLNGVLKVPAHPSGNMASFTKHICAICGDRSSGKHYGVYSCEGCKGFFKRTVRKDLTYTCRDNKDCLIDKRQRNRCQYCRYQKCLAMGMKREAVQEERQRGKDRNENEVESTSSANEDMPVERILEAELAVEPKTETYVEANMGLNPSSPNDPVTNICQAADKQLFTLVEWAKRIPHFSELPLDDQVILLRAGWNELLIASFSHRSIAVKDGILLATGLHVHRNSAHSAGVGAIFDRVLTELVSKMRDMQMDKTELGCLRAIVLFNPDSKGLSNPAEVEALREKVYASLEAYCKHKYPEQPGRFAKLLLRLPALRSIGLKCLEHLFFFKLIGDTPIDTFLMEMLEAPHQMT

[3] = molecular target: T3, Oxysterols receptor LXR-alpha (Homo sapiens) (UniProt Q13133); test: Antagonist activity at LXRalpha (unknown origin) assessed as inhibition of TO901317-induced response at 1 uM by luciferase reporter gene assay
T3 sequence (whole entry): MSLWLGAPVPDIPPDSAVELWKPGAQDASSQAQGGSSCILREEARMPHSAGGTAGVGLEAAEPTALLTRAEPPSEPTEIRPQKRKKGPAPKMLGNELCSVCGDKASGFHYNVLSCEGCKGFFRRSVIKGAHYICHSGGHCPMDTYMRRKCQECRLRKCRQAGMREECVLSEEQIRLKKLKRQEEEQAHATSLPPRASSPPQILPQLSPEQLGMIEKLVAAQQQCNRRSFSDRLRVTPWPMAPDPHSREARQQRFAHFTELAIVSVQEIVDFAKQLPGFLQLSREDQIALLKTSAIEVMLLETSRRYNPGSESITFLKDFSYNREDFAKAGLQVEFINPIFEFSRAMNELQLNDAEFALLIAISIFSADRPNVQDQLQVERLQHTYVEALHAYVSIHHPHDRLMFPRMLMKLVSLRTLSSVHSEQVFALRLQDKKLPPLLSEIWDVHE

[4] = molecular target: T4, Oxysterols receptor LXR-beta (Homo sapiens) (UniProt P55055); test: Antagonist activity at LXRbeta (unknown origin) assessed as inhibition of TO901317-induced response at 1 uM by luciferase reporter gene assay
T4 sequence (whole entry): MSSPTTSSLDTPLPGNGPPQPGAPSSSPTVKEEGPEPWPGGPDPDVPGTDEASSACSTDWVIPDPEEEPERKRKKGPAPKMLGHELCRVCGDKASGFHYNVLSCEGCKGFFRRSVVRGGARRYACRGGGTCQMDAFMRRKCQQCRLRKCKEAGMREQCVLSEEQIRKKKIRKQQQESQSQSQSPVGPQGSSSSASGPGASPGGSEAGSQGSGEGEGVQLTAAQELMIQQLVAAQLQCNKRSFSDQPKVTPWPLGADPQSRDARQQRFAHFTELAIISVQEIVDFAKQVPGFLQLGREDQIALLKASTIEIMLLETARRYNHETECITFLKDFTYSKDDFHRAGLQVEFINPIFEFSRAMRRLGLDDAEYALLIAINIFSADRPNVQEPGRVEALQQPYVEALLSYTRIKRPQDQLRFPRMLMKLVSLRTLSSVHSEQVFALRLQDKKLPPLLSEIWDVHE

[5] = molecular target: T5, Retinoic acid receptor alpha (Homo sapiens) (UniProt P10276); test: Agonist activity at RARalpha (unknown origin) at 1 uM by luciferase reporter gene assay
T5 sequence (whole entry): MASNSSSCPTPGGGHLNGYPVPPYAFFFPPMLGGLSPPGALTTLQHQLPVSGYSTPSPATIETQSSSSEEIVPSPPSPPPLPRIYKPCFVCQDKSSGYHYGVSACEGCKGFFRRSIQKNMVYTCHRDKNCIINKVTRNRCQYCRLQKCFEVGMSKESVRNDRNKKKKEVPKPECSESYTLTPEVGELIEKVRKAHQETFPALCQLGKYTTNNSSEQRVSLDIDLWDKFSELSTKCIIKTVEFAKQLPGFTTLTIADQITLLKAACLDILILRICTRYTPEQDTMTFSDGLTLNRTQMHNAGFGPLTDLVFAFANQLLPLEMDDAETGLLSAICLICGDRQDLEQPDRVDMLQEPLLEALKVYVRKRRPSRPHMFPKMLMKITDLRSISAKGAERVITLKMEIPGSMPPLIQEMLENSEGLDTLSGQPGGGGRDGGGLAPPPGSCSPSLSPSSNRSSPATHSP

Bile acid receptor [6] = molecular target: T1, Bile acid receptor; test: Antagonist activity at FXR in human HepG2 cells assessed as inhibition of CYP3A4 mRNA expression level at 0.02 to 2 uM after 48 hrs by RT-PCR analysis; format: ADME, cell-based; details: hepg2, 48 h

pIC50 (Bile acid receptor [1]): > 12.00
inhibition [2]: inactive
inhibition [3]: inactive
inhibition [4]: inactive
Activity [5]: inactive
inhibition (INH) (Bile acid receptor [6]): Not Active
Structure (SMILES): Cc1ccc2nc([C@H](CC3CCN(C(=O)C(C)C)CC3)N3C(=O)CN(c4ccc(Oc5ccccc5)cc4)C3=O)n(C)c2c1
